Test results taken from patent US20230165980A1, “METHODS FOR RADIOLABELING PSMA BINDING LIGANDS AND THEIR KITS” (Novartis AG, priority 2020, published 2023).

Experiment: Radiochemical purity: non-complexed ^68Ga species by ITLC
Format: physicochemical
Protocol: Radiochemical Purity: Non-Complexed ^68Ga Species by ITLC
Radical Scavenger to be used for the improvement of the radiochemical stability of ^68Ga-PSMA-11, tests were performed according to a varied approach in order to consider all the parameters that may affect the radiochemical purity of the product (activity, pH, volume, amount of Gentisic Acid).
Stability tests were performed on the freeze dried product containing the final formulation. […] Kits manufactured with the final formulation, indeed, were stored at different stability conditions (2-8° C.; 25° C. and 40° C.) and were tested at different time points for API-assay, Radiochemical Purity and Radiochemical Stability of the radiolabelled product. […]

## ^68Ga-PSMA-11 [[^68Ga] Gallium PSMA-11]
t0 h, Gentisic Acid 0 μg, IRE 17.19 mCi, 1 mL, pH 5.24
  [^68Ga] Not Complexed Species, iTLC: 0.00%
t0 h, Gentisic Acid 200 μg, IRE 17.85 mCi, 1 mL, pH 5.22
  [^68Ga] Not Complexed Species, iTLC: 0.23%
t0 h, Gentisic Acid 200 μg, IRE 18.07 mCi, 1 mL, pH 5.25
  [^68Ga] Not Complexed Species, iTLC: 0.00%
t0 h, Gentisic Acid 200 μg, ITG 35.92 mCi, 4 mL, pH 4.83
  [^68Ga] Not Complexed Species, iTLC: 0.00%
t0 h, Gentisic Acid 400 μg, IRE 17.44 mCi, 1 mL, pH 5.13
  [^68Ga] Not Complexed Species, iTLC: 0.00%
t0 h, Gentisic Acid 400 μg, IRE 17.79 mCi, 1 mL, pH 5.11
  [^68Ga] Not Complexed Species, iTLC: 0.00%
t0 h, Gentisic Acid 400 μg, ITG 16.9 mCi, 4 mL, pH 4.85
  [^68Ga] Not Complexed Species, iTLC: 0.00%
t0 h, Gentisic Acid 400 μg, ITG 31.97 mCi, 4 mL, pH 4.81
  [^68Ga] Not Complexed Species, iTLC: 0.00%
t0 h, Gentisic Acid 1000 μg, E&Z 15.65 mCi, 5 mL, pH 3.75
  [^68Ga] Not Complexed Species, iTLC: 0.00%
t0 h, Gentisic Acid 1000 μg, IRE 17.1 mCi, 1 mL, pH 5.08
  [^68Ga] Not Complexed Species, iTLC: 0.00%
t0 h, Gentisic Acid 1000 μg, ITG 30.9 mCi, 4 mL, pH 4.87
  [^68Ga] Not Complexed Species, iTLC: 0.00%
t0 h, final formulation kit at Release, E&Z 15.65 mCi, 5 mL, pH 3.75
  [^68Ga] Not Complexed Species, iTLC: 0.00%
t0 h, final formulation kit at Release, E&Z 16.80 mCi, 5 mL, pH 3.75
  [^68Ga] Not Complexed Species, iTLC: 0.51%
t0 h, final formulation kit at Release, IRE 32.27 mCi, 1 mL, pH 4.95
  [^68Ga] Not Complexed Species, iTLC: 0.00%
t0 h, final formulation kit at Release, IRE 32.95 mCi, 1 mL, pH 5.07
  [^68Ga] Not Complexed Species, iTLC: 0.00%
t0 h, final formulation kit at Release, ITG 29.74 mCi, 4 mL, pH 4.67
  [^68Ga] Not Complexed Species, iTLC: 0.00%
t0 h, final formulation kit at Release, ITG 30.90 mCi, 4 mL, pH 4.67
  [^68Ga] Not Complexed Species, iTLC: 0.00%
t0 h, kit stored 3 months at 2-8° C., IRE 25.76 mCi, 1 mL, pH 5.29
  [^68Ga] Not Complexed Species, iTLC: 0.00%
t0 h, kit stored 3 months at 25° C., IRE 24.56 mCi, 1 mL, pH 5.16
  [^68Ga] Not Complexed Species, iTLC: 0.00%
t0 h, kit stored 3 months at 40° C., IRE 24.86 mCi, 1 mL, pH 5.23
  [^68Ga] Not Complexed Species, iTLC: 0.00%
t0 h, kit stored 6 months at 2-8° C., IRE 19.90 mCi, 1 mL, pH 5.13
  [^68Ga] Not Complexed Species, iTLC: 0.00%
t0 h, kit stored 6 months at 25° C., IRE 18.88 mCi, 1 mL, pH 5.09
  [^68Ga] Not Complexed Species, iTLC: 0.00%
t0 h, kit stored 6 months at 40° C., IRE 19.34 mCi, 1 mL, pH 5.15
  [^68Ga] Not Complexed Species, iTLC: 0.00%
t4 h, Gentisic Acid 0 μg, IRE 17.19 mCi, 1 mL, pH 5.24
  [^68Ga] Not Complexed Species, iTLC: 0.00%
t4 h, Gentisic Acid 200 μg, IRE 17.85 mCi, 1 mL, pH 5.22
  [^68Ga] Not Complexed Species, iTLC: 0.00%
t4 h, Gentisic Acid 200 μg, IRE 18.07 mCi, 1 mL, pH 5.25
  [^68Ga] Not Complexed Species, iTLC: 0.00%
t4 h, Gentisic Acid 200 μg, ITG 35.92 mCi, 4 mL, pH 4.83
  [^68Ga] Not Complexed Species, iTLC: 0.00%
t4 h, Gentisic Acid 400 μg, IRE 17.44 mCi, 1 mL, pH 5.13
  [^68Ga] Not Complexed Species, iTLC: 0.00%
t4 h, Gentisic Acid 400 μg, IRE 17.79 mCi, 1 mL, pH 5.11
  [^68Ga] Not Complexed Species, iTLC: 0.00%
t4 h, Gentisic Acid 400 μg, ITG 16.9 mCi, 4 mL, pH 4.85
  [^68Ga] Not Complexed Species, iTLC: 0.00%
t4 h, Gentisic Acid 400 μg, ITG 31.97 mCi, 4 mL, pH 4.81
  [^68Ga] Not Complexed Species, iTLC: 0.00%
t4 h, Gentisic Acid 1000 μg, E&Z 15.65 mCi, 5 mL, pH 3.75
  [^68Ga] Not Complexed Species, iTLC: 0.00%
t4 h, Gentisic Acid 1000 μg, IRE 17.1 mCi, 1 mL, pH 5.08
  [^68Ga] Not Complexed Species, iTLC: 0.00%
t4 h, Gentisic Acid 1000 μg, ITG 30.9 mCi, 4 mL, pH 4.87
  [^68Ga] Not Complexed Species, iTLC: 0.00%
t4 h, final formulation kit at Release, E&Z 15.65 mCi, 5 mL, pH 3.75
  [^68Ga] Not Complexed Species, iTLC: 0.00%
t4 h, final formulation kit at Release, E&Z 16.80 mCi, 5 mL, pH 3.75
  [^68Ga] Not Complexed Species, iTLC: 0.00%
t4 h, final formulation kit at Release, IRE 32.27 mCi, 1 mL, pH 4.95
  [^68Ga] Not Complexed Species, iTLC: 0.00%
t4 h, final formulation kit at Release, IRE 32.95 mCi, 1 mL, pH 5.07
  [^68Ga] Not Complexed Species, iTLC: 0.00%
t4 h, final formulation kit at Release, ITG 29.74 mCi, 4 mL, pH 4.67
  [^68Ga] Not Complexed Species, iTLC: 0.00%
t4 h, final formulation kit at Release, ITG 30.90 mCi, 4 mL, pH 4.67
  [^68Ga] Not Complexed Species, iTLC: 0.00%
t4 h, kit stored 3 months at 2-8° C., IRE 25.76 mCi, 1 mL, pH 5.29
  [^68Ga] Not Complexed Species, iTLC: 0.00%
t4 h, kit stored 3 months at 25° C., IRE 24.56 mCi, 1 mL, pH 5.16
  [^68Ga] Not Complexed Species, iTLC: 0.00%
t4 h, kit stored 3 months at 40° C., IRE 24.86 mCi, 1 mL, pH 5.23
  [^68Ga] Not Complexed Species, iTLC: 0.00%
t4 h, kit stored 6 months at 2-8° C., IRE 19.90 mCi, 1 mL, pH 5.13
  [^68Ga] Not Complexed Species, iTLC: 0.00%
t4 h, kit stored 6 months at 25° C., IRE 18.88 mCi, 1 mL, pH 5.09
  [^68Ga] Not Complexed Species, iTLC: 0.00%
t4 h, kit stored 6 months at 40° C., IRE 19.34 mCi, 1 mL, pH 5.15
  [^68Ga] Not Complexed Species, iTLC: 0.00%
